From article PMC6986443, “T‐495, a novel low cooperative M1 receptor positive allosteric modulator, improves memory deficits associated with cholinergic dysfunction and is characterized by low gastrointestinal side effect risk” (Pharmacology Research & Perspectives, 2020)
Where two headings read alike, the source gives them in different places.

Assays:
[1] = system: SD rats
Procedure: Seven‐ or 8‐week‐old SD rats were individually placed into observation cages. After an acclimation period of at least 1 hour, a test compound was administered to the rats. […] Cholinergic side effects, including diarrhea, lacrimation, salivation, miosis, and fasciculation, were assessed blindly, as described previously,27 and convulsion was scored using a modified Racine scale,37 as follows: stage 0, normal; stage 1, immobility; stage 2, forelimb and/or tail extension and rigid posture; stage 3, repetitive movements, head nodding, and gnawing; stage 4, rearing and falling; stage 5, continuous rearing and falling; stage 6, severe tonic‐clonic seizure with loss of postural control; and stage 7, death in the first 2 hours.

[2] = system: IP1 production in the mouse hippocampus; test: In vivo IP1 assay, mouse hippocampus; conditions: p.o.; 3, 10, 30 mg/kg tested
Procedure: Eight‐week‐old Long‐Evans rats, 8‐ to 9‐week‐old C57BL/6J mice, and 22‐ or 29‐week‐old M1R KO mice and their WT littermates were used in this study. On the day of the experiment, animals were placed in individual cages and acclimated for more than 1 hour. A test compound or vehicle was administered 2 hours before the animals were sacrificed. […] LiCl (10 mmol/kg, s.c.) was injected 1 hour before sacrifice. In the repeated administration study, a test compound was administered to mice once daily for 13 days; on day 14, animals were treated with a test compound and LiCl (10 mmol/kg, s.c.) and then sacrificed. Animals were killed by decapitation, and blood was collected into tubes containing ethylenediaminetetraacetic acid for pharmacokinetic analysis; brains were quickly dissected, frozen on dry ice, and stored at −80°C until analysis. […] IP1 and protein concentrations in the diluted supernatant were measured using IP‐One HTRF assay kit (Cisbio Bioassays) and BCA Protein Assay Kit (Thermo Fisher Scientific Inc), respectively, according to the manufacturers’ instructions. IP1 production was expressed as the ratio of IP1 to protein concentrations.

[3] = system: human M2R–M5R; test: Ca2+ mobilization assay, PAM activity (with EC20 ACh), CHO‐K1 cells; format: cell-based; conditions: inflection point, EC20 concentration of ACh, read-out: PAM activity IP
Procedure: Chinese hamster ovary (CHO)‐K1 cells expressing M1R–M5R were plated on a 96‐well black, clear bottom plate at 30 000 cells/well and incubated at 37°C in an atmosphere of 5% CO2 for 1 day. On the day of the assay, cells were incubated with calcium dye buffer (Hanks’ Balanced Salt Solution (HBSS) containing 20 mmol/L HEPES, 0.1% fatty acid‐free bovine serum albumin (BSA), 0.08% pluronic F127 (Dojindo Laboratories), 2.5 μg/mL Fluo‐4 (Dojindo Laboratories), and 1.25 mmol/L probenecid (Dojindo Laboratories)) for 30 minutes at 37°C in an atmosphere of 5% CO2 and then incubated for 30 minutes at room temperature. To measure Ca^2+ mobilization using CellLux (PerkinElmer), cells were stimulated with T‐495 or MK‐7622 (0.01‐1000 nmol/L for PAM activity; 0.3‐10 000 nmol/L for agonist activity) in assay buffer (HBSS containing 20 mmol/L HEPES and 0.1% fatty acid‐free BSA) with or without an EC20 concentration of ACh. The inflection point (IP) and EC50 values were calculated using the following equation by GraphPad Prism 5 software (GraphPad Software Inc): Y=Bottom+(Top-Bottom)/1+10^(Log IPorEC50-X×HillSlope))
where X and Y are the log concentration of a compound and the percentage of Ca^2+ response, respectively, and Top and Bottom are the upper and lower plateaus, respectively.

[4] = system: IP1 production in the rat hippocampus; test: In vivo IP1 assay, rat hippocampus; conditions: LiCl 10 mmol/kg s.c., vs vehicle
Procedure: (§1) Eight‐week‐old Long‐Evans rats, 8‐ to 9‐week‐old C57BL/6J mice, and 22‐ or 29‐week‐old M1R KO mice and their WT littermates were used in this study. On the day of the experiment, animals were placed in individual cages and acclimated for more than 1 hour. A test compound or vehicle was administered 2 hours before the animals were sacrificed. […] LiCl (10 mmol/kg, s.c.) was injected 1 hour before sacrifice. In the repeated administration study, a test compound was administered to mice once daily for 13 days; on day 14, animals were treated with a test compound and LiCl (10 mmol/kg, s.c.) and then sacrificed. Animals were killed by decapitation, and blood was collected into tubes containing ethylenediaminetetraacetic acid for pharmacokinetic analysis; brains were quickly dissected, frozen on dry ice, and stored at −80°C until analysis. Brain tissues were homogenized in 19 (for rat tissues) or 39 (for mouse tissue) volumes of homogenization buffer (10 mmol/L HEPES pH 7.4, 50 mmol/L LiCl, 150 mmol/L NaCl, and 1% Triton X‐100), and the homogenate was incubated on a rotator for 1 hour, followed by centrifugation. The supernatant was diluted with 39 (for rat tissues) or 19 (for mouse tissues) volumes of dilution buffer (10 mmol/L HEPES pH 7.4, 50 mmol/L LiCl, and 150 mmol/L NaCl). IP1 and protein concentrations in the diluted supernatant were measured using IP‐One HTRF assay kit (Cisbio Bioassays) and BCA Protein Assay Kit (Thermo Fisher Scientific Inc), respectively, according to the manufacturers’ instructions. IP1 production was expressed as the ratio of IP1 to protein concentrations.

[5] = system: IP1 production in the hippocampus, prefrontal cortex, striatum, and brainstem; test: In vivo IP1 assay, wild‐type and M1R KO mice; parameters: species or system mouse
Procedure: as §1

[6] = target: T1, Cannabinoid CB1 (Homo sapiens, UniProt P21554); test: Selectivity panel; format: binding
T1 construct: purchased Eurofins Panlabs Taiwan Ltd
T1 sequence (P21554 whole entry): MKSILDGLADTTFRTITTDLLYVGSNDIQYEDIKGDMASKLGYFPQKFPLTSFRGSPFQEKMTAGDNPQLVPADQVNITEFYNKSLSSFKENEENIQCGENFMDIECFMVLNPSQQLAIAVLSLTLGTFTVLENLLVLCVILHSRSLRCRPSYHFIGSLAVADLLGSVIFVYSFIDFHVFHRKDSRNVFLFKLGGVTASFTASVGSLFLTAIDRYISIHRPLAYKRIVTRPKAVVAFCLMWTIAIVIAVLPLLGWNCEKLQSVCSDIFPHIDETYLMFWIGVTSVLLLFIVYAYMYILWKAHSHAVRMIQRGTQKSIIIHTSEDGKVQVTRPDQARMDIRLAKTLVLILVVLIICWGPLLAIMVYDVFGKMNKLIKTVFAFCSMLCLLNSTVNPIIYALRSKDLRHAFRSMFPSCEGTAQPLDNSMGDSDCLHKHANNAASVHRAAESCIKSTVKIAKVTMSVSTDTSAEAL
Text: (§2) The selectivity of T‐495 at 10 μmol/L against a panel of 106 targets, including receptors, enzymes, ion channels, and transporters, was characterized (Eurofins Panlabs Taiwan Ltd., Taipei, Taiwan).

[7] = target: T2, Endothelin ETA (Homo sapiens, UniProt P25101); test: Selectivity panel; format: binding
T2 construct: purchased Eurofins Panlabs Taiwan Ltd
T2 sequence (P25101 21-427): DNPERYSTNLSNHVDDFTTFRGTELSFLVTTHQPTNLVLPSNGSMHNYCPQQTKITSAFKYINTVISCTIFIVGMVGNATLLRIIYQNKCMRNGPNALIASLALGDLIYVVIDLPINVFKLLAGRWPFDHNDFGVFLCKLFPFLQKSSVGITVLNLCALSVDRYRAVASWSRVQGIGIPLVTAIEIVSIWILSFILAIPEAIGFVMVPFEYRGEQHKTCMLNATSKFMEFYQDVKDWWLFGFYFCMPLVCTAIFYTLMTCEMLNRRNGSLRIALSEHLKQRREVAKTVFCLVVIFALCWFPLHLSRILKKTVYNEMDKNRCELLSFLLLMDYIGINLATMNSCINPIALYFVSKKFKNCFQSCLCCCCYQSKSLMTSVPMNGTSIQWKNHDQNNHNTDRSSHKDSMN
Text: as §2

[8] = target: T3, Tachykinin NK1 (Homo sapiens, UniProt P25103); test: Selectivity panel; format: binding
T3 construct: purchased Eurofins Panlabs Taiwan Ltd
T3 sequence (P25103 whole entry): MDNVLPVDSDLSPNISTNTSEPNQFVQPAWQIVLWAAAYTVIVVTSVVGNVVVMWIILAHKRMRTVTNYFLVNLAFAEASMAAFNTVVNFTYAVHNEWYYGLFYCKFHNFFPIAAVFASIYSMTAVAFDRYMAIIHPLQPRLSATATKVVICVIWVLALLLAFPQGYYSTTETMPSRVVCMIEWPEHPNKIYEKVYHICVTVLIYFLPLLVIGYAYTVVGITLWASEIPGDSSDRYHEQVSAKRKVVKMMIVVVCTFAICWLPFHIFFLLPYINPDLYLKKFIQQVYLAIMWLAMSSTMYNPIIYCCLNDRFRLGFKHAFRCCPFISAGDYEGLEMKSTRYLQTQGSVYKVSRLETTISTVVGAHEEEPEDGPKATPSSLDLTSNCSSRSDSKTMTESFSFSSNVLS
Text: as §2

[9] = system: Calcium channel L-type, phenylalkylamine; test: Selectivity panel; format: binding
Text: as §2

[10] = system: Potassium channel (SKCA); test: Selectivity panel; format: binding
Text: as §2

[11] = target: T4, Serotonin 5-HT3 (Homo sapiens, UniProt P46098); test: Selectivity panel; format: binding
T4 construct: purchased Eurofins Panlabs Taiwan Ltd
T4 sequence (P46098 24-478): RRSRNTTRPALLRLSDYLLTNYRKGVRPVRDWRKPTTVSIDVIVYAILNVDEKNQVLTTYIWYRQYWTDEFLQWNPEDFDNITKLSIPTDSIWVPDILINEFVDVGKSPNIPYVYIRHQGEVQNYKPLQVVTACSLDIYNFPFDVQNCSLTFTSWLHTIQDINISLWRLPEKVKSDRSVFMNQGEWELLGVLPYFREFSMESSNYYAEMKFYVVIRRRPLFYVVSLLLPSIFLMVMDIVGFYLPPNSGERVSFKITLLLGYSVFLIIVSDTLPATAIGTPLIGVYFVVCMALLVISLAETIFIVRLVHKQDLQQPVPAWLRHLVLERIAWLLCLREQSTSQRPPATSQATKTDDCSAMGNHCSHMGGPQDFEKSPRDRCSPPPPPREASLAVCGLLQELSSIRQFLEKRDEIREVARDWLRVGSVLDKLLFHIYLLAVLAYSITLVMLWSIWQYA
Text: as §2

[12] = target: T5, Melatonin MT1 (Homo sapiens, UniProt P48039); test: Selectivity panel; format: binding
T5 construct: purchased Eurofins Panlabs Taiwan Ltd
T5 sequence (P48039 whole entry): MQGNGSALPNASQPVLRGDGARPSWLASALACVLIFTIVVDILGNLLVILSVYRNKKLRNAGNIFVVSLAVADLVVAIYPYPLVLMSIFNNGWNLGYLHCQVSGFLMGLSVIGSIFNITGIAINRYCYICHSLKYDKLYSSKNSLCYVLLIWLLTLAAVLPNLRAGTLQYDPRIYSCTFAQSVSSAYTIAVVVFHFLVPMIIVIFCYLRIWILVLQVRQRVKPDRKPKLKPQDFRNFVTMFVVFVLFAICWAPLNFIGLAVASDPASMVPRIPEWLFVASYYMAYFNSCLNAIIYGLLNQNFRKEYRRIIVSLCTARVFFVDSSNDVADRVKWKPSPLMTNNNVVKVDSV
Text: as §2

[13] = system: panel of 106 targets, including receptors, enzymes, ion channels, and transporters; test: Selectivity panel (Eurofins Panlabs), overall; conditions: 10 μmol/L
Text: as §2

[14] = rats, 1 mg/kg p.o., observed 15 min to 8 h, rats with effect/total
[15] = rats, 3 mg/kg p.o., observed 15 min to 8 h, rats with effect/total
[16] = rats, 10 mg/kg p.o., observed 15 min to 8 h, rats with effect/total
[17] = rats, 30 mg/kg p.o., observed 15 min to 8 h, rats with effect/total
[18] = rats, 100 mg/kg p.o., observed 15 min to 8 h, rats with effect/total
[19] = rats, T-495 0.3 mg/kg p.o. alone, combination study, rats with effect/total
[20] = rats, donepezil 0.1 mg/kg + T-495 0.3 mg/kg p.o., rats with effect/total

Cc1ccc(Cc2cc3c(=O)n([C@H]4CCCC[C@@H]4O)cnc3c3ccccc23)cn1 [MK‐7622, 3‐((1S,2S)‐2‐hydroxycyclohexyl)‐6‐((6‐methylpyridin‐3‐yl)methyl)benzo[h]quinazolin‐4(3H)‐one, reference compound]
Convulsion ([1]; SD, rat, in vivo, po, 3 mg/kg): 0/6 | Fasciculation ([1]; SD, rat, in vivo, po, 3 mg/kg): 0/6 | Lacrimation ([1]; SD, rat, in vivo, po, 3 mg/kg): 0/6 | Loose or mucous stool or diarrhea ([1]; SD, rat, in vivo, po, 3 mg/kg): 2/6 | Miosis ([1]; SD, rat, in vivo, po, 3 mg/kg): 0/6 | Salivation ([1]; SD, rat, in vivo, po, 3 mg/kg): 0/6 | Convulsion ([1]; SD, rat, in vivo, po, 10 mg/kg): 0/6 | Fasciculation ([1]; SD, rat, in vivo, po, 10 mg/kg): 0/6 | Lacrimation ([1]; SD, rat, in vivo, po, 10 mg/kg): 0/6 | Loose or mucous stool or diarrhea ([1]; SD, rat, in vivo, po, 10 mg/kg): 3/6 | Miosis ([1]; SD, rat, in vivo, po, 10 mg/kg): 0/6 | Salivation ([1]; SD, rat, in vivo, po, 10 mg/kg): 0/6 | Convulsion ([1]; SD, rat, in vivo, po, 30 mg/kg): 0/6 | Fasciculation ([1]; SD, rat, in vivo, po, 30 mg/kg): 0/6 | Lacrimation ([1]; SD, rat, in vivo, po, 30 mg/kg): 0/6 | Loose or mucous stool or diarrhea ([1]; SD, rat, in vivo, po, 30 mg/kg): 6/6 | Miosis ([1]; SD, rat, in vivo, po, 30 mg/kg): 0/6 | Salivation ([1]; SD, rat, in vivo, po, 30 mg/kg): 0/6 | dose difference between memory improvement and induction of cholinergic side effects, including diarrhea ([1]; rat, in vivo): onefold | diarrhea score ([1]; rat, in vivo, po, 3 mg/kg): tended to increase | minimum effective dose for increase of IP1 production in the mouse hippocampus [2]: 10 mg/kg | EC50 [3]: > 1000 nM | IP1 production in the rat hippocampus ([4]; 10 mg/kg p.o.): significantly increased | IP1 production in the brainstem ([5]; M1R KO mice (and wild‐type), 20 mg/kg p.o.): slight reduction | IP1 production in hippocampus, prefrontal cortex, and striatum ([5]; M1R KO mice, 20 mg/kg p.o.): did not cause a significant increase | IP1 production in the brainstem ([5]; wild‐type mice, 20 mg/kg p.o.): slightly reduced | IP1 production in the forebrain ([5]; wild‐type mice, 20 mg/kg p.o.): increased

Cc1c(Cc2ccc(Cl)nc2)cc2c(c1Cl)OCN([C@H]1CCC[C@@H]1O)C2=O [T‐495, 8‐chloro‐6‐((6‐chloropyridin‐3‐yl)methyl)‐3‐((1S,2S)‐2‐hydroxycyclopentyl)‐7‐methyl‐2,3‐dihydro‐4H‐1,3‐benzoxazin‐4‐one]
dose difference between memory improvement and induction of cholinergic side effects, including diarrhea ([1]; rats): 100 fold | Convulsion [1, 14]: 0/6 | Fasciculation [1, 14]: 0/6 | Lacrimation [1, 14]: 0/6 | Loose or mucous stool or diarrhea [1, 14]: 0/6 | Miosis [1, 14]: 0/6 | Salivation [1, 14]: 0/6 | Convulsion [1, 15]: 0/6 | Fasciculation [1, 15]: 0/6 | Lacrimation [1, 15]: 0/6 | Loose or mucous stool or diarrhea [1, 15]: 0/6 | Miosis [1, 15]: 0/6 | Salivation [1, 15]: 0/6 | Convulsion [1, 16]: 0/6 | Fasciculation [1, 16]: 0/6 | Lacrimation [1, 16]: 0/6 | Loose or mucous stool or diarrhea [1, 16]: 0/6 | Miosis [1, 16]: 0/6 | Salivation [1, 16]: 0/6 | Convulsion [1, 17]: 0/6 | Fasciculation [1, 17]: 0/6 | Lacrimation [1, 17]: 0/6 | Loose or mucous stool or diarrhea [1, 17]: 0/6 | Miosis [1, 17]: 0/6 | Salivation [1, 17]: 0/6 | Convulsion [1, 18]: 1/6 | Fasciculation [1, 18]: 0/6 | Lacrimation [1, 18]: 0/6 | Loose or mucous stool or diarrhea [1, 18]: 5/6 | Miosis [1, 18]: 0/6 | Salivation [1, 18]: 1/6 | diarrhea score ([1]; rats, 100 mg/kg p.o., vs vehicle): significantly increased | Convulsion [1, 19]: 0/6 | Fasciculation [1, 19]: 0/6 | Lacrimation [1, 19]: 0/6 | Loose, mucous stool, or diarrhea [1, 19]: 0/6 | Myosis [1, 19]: 0/6 | Salivation [1, 19]: 0/6 | cholinergic side effects, combination with donepezil ([1]; rats, T‐495 0.3 mg/kg + donepezil 0.1 mg/kg): no cholinergic side effects were observed | Convulsion [1, 20]: 0/6 | Fasciculation [1, 20]: 0/6 | Lacrimation [1, 20]: 0/6 | Loose, mucous stool, or diarrhea [1, 20]: 0/6 | Myosis [1, 20]: 0/6 | Salivation [1, 20]: 0/6 | cholinergic side effects ([1]; rats, doses up to 30 mg/kg p.o.): did not elicit any cholinergic side effects | minimum effective dose for increase of IP1 production in the mouse hippocampus [2]: 10 mg/kg | EC50 [3]: > 1000 nM | inhibition at 10 µM [6]: 14% | inhibition at 10 µM [7]: -4% | inhibition at 10 µM [8]: -2% | % inhibition at 10 μM [9]: 19% | % inhibition at 10 μM [10]: 1% | inhibition at 10 µM [11]: -3% | inhibition at 10 µM [12]: 29% | IP1 production in the rat hippocampus ([4]; 10 mg/kg p.o.): significantly increased | IP1 production in the rat hippocampus ([4]; 30 mg/kg p.o.): significantly increased | IP1 production in hippocampus, prefrontal cortex, and striatum ([5]; M1R KO mice, 10 mg/kg p.o.): did not cause a significant increase | IP1 production in hippocampus, prefrontal cortex, and striatum ([5]; wild‐type mice, 10 mg/kg p.o.): significantly increased | significant inhibition or stimulation (≥50%) in panel of 106 targets [13]: No significant inhibition or stimulation (≥50%) was observed, except for two targets
